Common to all, as to format: in vivo
The subject of assay [1] is AMARE (Amaranthus retroflexus). In words: greenhouse post-emergence herbicidal test. The conditions noted are these: 62 g/ha. The essentials:
(§1)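 Post-emergence greenhouse test on plants grown to 3–15 cm in loamy sand (~3.0% humus), sprayed with active ingredient suspended or emulsified in water. Plants held at 10-25 °C or 20-35 °C by species for 2 to 4 weeks, then damage scored visually 0–100 (100 = complete destruction of aerial parts, 0 = no damage).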

Assay [2] has as its system SETVI (Setaria viridis). Description: greenhouse post-emergence herbicidal test. The conditions noted are these: 62 g/ha. The procedure, abridged:
as §1

The subject of assay [3] is MATIN (Matricaria maritima). Description: greenhouse pre-emergence herbicidal test. The conditions noted are these: 2000 g/ha. The essentials:
(§2)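 Sow each species separately in loamy sand (approx. 3.0% humus), then spray the water-suspended or emulsified compound at once. Irrigate gently, cover with transparent hoods until rooted, hold at 10-25° C. or 20-35° C., and rate injury 0-100 over 2 to 4 weeks.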

A further assay concerns POAAN (Poa annua). Description: greenhouse pre-emergence herbicidal test. The procedure, abridged: as §2
In assay [4] the test system is APESV (Apera spica-venti). In words: greenhouse pre-emergence herbicidal test. The procedure, abridged:
as §2

The test system of assay [5] is AMARE (Amaranthus retroflexus). Description: greenhouse pre-emergence herbicidal test. The settings on record: 1000 g/ha. From the text: The seeds of the test plants were sown separately for each species. For the pre-emergence treatment, the active ingredients, which had been suspended or emulsified in water, were applied directly after sowing by means of finely distributing nozzles. The containers were irrigated gently to promote germination and growth and subsequently covered with transparent plastic hoods until the plants had rooted. This cover caused uniform germination of the test plants, unless this had been impaired by the active ingredients. Depending on the species, the plants were kept at 10-25° C. or 20-35° C., respectively. The test period extended over 2 to 4 weeks. During this time, the plants were tended, and their response to the individual treatments was evaluated. […] A moderate herbicidal activity is given at values of at least 60, a good herbicidal activity is given at values of at least 70, and a very good herbicidal activity is given at values of at least 85. The plants used in the greenhouse experiments were of the following species: [table]

Assay [6] relates to POLCO (Polygonum convolvulus). In words: greenhouse pre-emergence herbicidal test. The procedure, abridged: as §2
Assay [7] has as its system SETVI (Setaria viridis). Description: greenhouse pre-emergence herbicidal test. The procedure, abridged:
as §2

In a further assay the test system is THLAR (Thlaspi arvense). In words: greenhouse pre-emergence herbicidal test. The settings on record: 0.125 kg/ha. The procedure, abridged: as §2
The subject of a further assay is VIOAR (Viola arvensis). In words: greenhouse pre-emergence herbicidal test. The essentials:
as §2

For another assay, the system named is STEME (Stellaria media). Description: greenhouse pre-emergence herbicidal test. The settings on record: 500 g/ha. The essentials: as §2
The test system of assay [8] is ECHCG (Echinocloa crus-galli). In words: greenhouse pre-emergence herbicidal test. The conditions noted are these: 32 g/ha. The essentials: as §2

For `CC(C)(C)C(=O)N(c1nc(N)nc(C(C)(C)C)n1)c1c(F)c(F)c(F)c(F)c1F` [Example 283], the herbicidal activity result in [1] is “very good (a very good herbicidal activity is given at values of at least 85)”; with SETVI (Setaria viridis) [2] it was “good (a good herbicidal activity is given at values of at least 70)”.

As to `CC(=O)N(c1nc(N)nc(C(C)(C)F)n1)c1c(F)c(F)c(F)c(F)c1F` [Example 291], the herbicidal activity result (in [3]; with POAAN (Poa annua) (2000 g/ha)) was “very good (a very good herbicidal activity is given at values of at least 85)” in each case. For the molecule `COc1cc(F)c(Nc2nc(N)nc(C(C)(C)F)n2)c(F)c1` [Example 116], the herbicidal activity entry is recorded as “very good (a very good herbicidal activity is given at values of at least 85)” in assay [4] (1000 g/ha) and “good (a good herbicidal activity is given at values of at least 70)” in assay [5].

Take `CC(C)(F)c1nc(N)nc(Nc2c(F)cccc2F)n1` [Example 24]: the herbicidal activity result (in assay [6] (0.125 kg/ha); in the assay on SETVI (Setaria viridis) [7] (0.125 kg/ha)) was “very good (a very good herbicidal activity is given at values of at least 85)” throughout. In the case of `CC(C)(F)c1nc(N)nc(Nc2cc(C(F)(F)F)cc(C(F)(F)F)c2)n1` [Example 46], in the assay with THLAR (Thlaspi arvense), the herbicidal activity result was “very good (a very good herbicidal activity is given at values of at least 85)”. As for `Nc1nc(Nc2c(F)c(F)c(F)c(F)c2F)nc(C2(F)C(F)(F)C(F)(F)C(F)(F)C(F)(F)C2(F)F)n1` [Example 175], the herbicidal activity entry in assay [4] (494 g/ha) is given as “good (a good herbicidal activity is given at values of at least 70)”.

As for `CC(C)(F)c1nc(N)nc(Nc2ccc([N+](=O)[O-])cc2F)n1` [Example 39], the herbicidal activity entry in assay [4] (0.031 kg/ha) is “moderate (A moderate herbicidal activity is given at values of at least 60)”.

Consider `COCN(c1nc(N)nc(C(C)(C)F)n1)c1c(F)c(F)c(F)c(F)c1F` [Example 305], for which the herbicidal activity result (in the assay on VIOAR (Viola arvensis) (500 g/ha); in assay [6] (500 g/ha); in the assay on STEME (Stellaria media)) was “very good (a very good herbicidal activity is given at values of at least 85)” throughout. As for `CC(C)(F)c1nc(N)nc(Nc2c(F)c(F)c(Cl)c(F)c2F)n1` [Example 128], the values for the herbicidal activity entry in the assay on VIOAR (Viola arvensis) (125 g/ha) and with POAAN (Poa annua) (125 g/ha) were “good (a good herbicidal activity is given at values of at least 70)” and “very good (a very good herbicidal activity is given at values of at least 85)”, respectively. Regarding `CC(O)c1nc(N)nc(Nc2c(F)c(F)c(F)c(F)c2F)n1` (stereo not shown) [Example 69], the herbicidal activity result (in [3]; in the assay on POAAN (Poa annua) (2000 g/ha)) was “very good (a very good herbicidal activity is given at values of at least 85)” each time.

With `CCC(C)(F)c1nc(N)nc(Nc2c(F)ccc(F)c2F)n1` (stereo not shown) [Example 114], the herbicidal activity result (in assay [6] (32 g/ha); with SETVI (Setaria viridis) [7] (32 g/ha); in assay [8]) was “very good (a very good herbicidal activity is given at values of at least 85)” throughout.

With `CC(C)(Cl)c1nc(N)nc(Nc2c(F)cccc2F)n1` [Example 78], the herbicidal activity entry in [4] (125 g/ha) is given as “good (a good herbicidal activity is given at values of at least 70)”.

These data come from patent publication US9549558B2, “Herbicidal azines” (BASF SE, priority 2012, dated 2017).
